Literature values as cited in patent US20090265114A1, “Influenza virus neuraminidase crystal structure and their use thereof” (priority 2006, published 2009).

Legend:
[1] = system: Group-2 NAs with His-274->Tyr
[2] = system: Group-1 enzymes with Arg-292->Lys; conditions: Group-1 enzymes compared with Group-2 NAs
[3] = system: Group-1 NAs with His-274->Tyr

CCOC(=O)C1=C[C@@H](OC(CC)CC)[C@H](NC(C)=O)[C@@H](N)C1 [oseltamivir]
effect of the mutation His-274->Tyr on resistance against oseltamivir [1]: little effect
effect of the mutation Arg-292->Lys on oseltamivir resistance [2]: smaller effect
resistance against oseltamivir caused by the mutation His-274->Tyr [3]: high resistance
